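48-hour exposure; five concentrations; linearly interpolated endpoints. At the GI50, growth is halved.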 Active and inactive are the calls of the source. Cut-off read from the data, not from the text of the source: active = GI50 up to about 1.1 µM and inactive = higher.
Legend:
Assay in all cases: growth of human tumour cells (NCI), 48 h
M14 = system: M14
LOX IMVI = system: LOX IMVI
SK-MEL-28 = system: SK-MEL-28
SK-MEL-5 = system: SK-MEL-5
SW-620 = system: SW-620
ACHN = system: ACHN
OVCAR-3 = system: OVCAR-3
RPMI-8226 = system: RPMI-8226
OVCAR-5 = system: OVCAR-5
EKVX = system: EKVX
SK-OV-3 = system: SK-OV-3
SNB-75 = system: SNB-75
OVCAR-8 = system: OVCAR-8
A498 = system: A498
KM-20L2 = system: KM-20L2
NCI-H460 = system: NCI-H460
HOP-62 = system: HOP-62
UO-31 = system: UO-31
HCT-15 = system: HCT-15
OVCAR-4 = system: OVCAR-4
SF-539 = system: SF-539
HOP-18 = system: HOP-18
Malme-3M = system: Malme-3M
SF-268 = system: SF-268
DMS-273 = system: DMS-273
HCC 2998 = system: HCC 2998
KM12 = system: KM12
SNB-78 = system: SNB-78
786-0 = system: 786-0
HOP-92 = system: HOP-92
CCRF-CEM = system: CCRF-CEM
U-251 = system: U-251
HT-29 = system: HT-29
K562 = system: K562
XF498 = system: XF498
HCT-116 = system: HCT-116
SNB-19 = system: SNB-19
SK-MEL-2 = system: SK-MEL-2
A549 = system: A549
RXF 631 = system: RXF 631
NCI-H226 = system: NCI-H226
TK-10 = system: TK-10
COLO 205 = system: COLO 205
UACC-62 = system: UACC-62
SN12C = system: SN12C
CAKI-1 = system: CAKI-1
M19-MEL = system: M19-MEL
SF-295 = system: SF-295
NCI-H23 = system: NCI-H23
UACC-257 = system: UACC-257
IGROV-1 = system: IGROV-1
DLD-1 = system: DLD-1
SR = system: SR
RXF 393 = system: RXF 393
NCI-H522 = system: NCI-H522
DMS-114 = system: DMS-114
LXFL 529 = system: LXFL 529
MOLT-4 = system: MOLT-4
HL-60 = system: HL-60

Measured: GI50

CCOCN1COCN(C)C1=O
> 100 µM: HCT-15
inactive: M14 > 100 µM | LOX IMVI > 100 µM | SK-MEL-28 > 100 µM | SK-MEL-5 > 100 µM | SW-620 > 100 µM | ACHN > 100 µM | OVCAR-3 > 100 µM | RPMI-8226 > 100 µM | OVCAR-5 > 100 µM | EKVX > 100 µM | SK-OV-3 > 100 µM | SNB-75 > 100 µM | OVCAR-8 > 100 µM | A498 > 100 µM | KM-20L2 > 100 µM | NCI-H460 > 100 µM | HOP-62 > 100 µM | UO-31 > 100 µM | OVCAR-4 > 100 µM | SF-539 > 100 µM | HOP-18 > 100 µM | Malme-3M > 100 µM | SF-268 > 100 µM | DMS-273 > 100 µM | HCC 2998 > 100 µM | KM12 > 100 µM | SNB-78 > 100 µM | 786-0 > 100 µM | HOP-92 > 100 µM | CCRF-CEM > 100 µM | U-251 > 100 µM | HT-29 > 100 µM | K562 > 100 µM | XF498 > 100 µM | HCT-116 > 100 µM | SNB-19 > 100 µM | SK-MEL-2 > 100 µM | A549 > 100 µM | RXF 631 > 100 µM | NCI-H226 > 100 µM | TK-10 > 100 µM | COLO 205 > 100 µM | UACC-62 > 100 µM | SN12C > 100 µM | CAKI-1 > 100 µM | M19-MEL > 100 µM | SF-295 > 100 µM | NCI-H23 > 100 µM | UACC-257 > 100 µM | IGROV-1 > 100 µM | DLD-1 > 100 µM

O=C(O/C(=C(/N=N/c1ccccc1)c1ccccc1)c1ccccc1)c1ccccc1
inactive: SR > 100 µM | SK-MEL-28 > 100 µM | SK-MEL-5 > 100 µM | SW-620 > 100 µM | ACHN > 100 µM | RXF 393 > 100 µM | RPMI-8226 > 100 µM | OVCAR-5 > 100 µM | EKVX > 100 µM | NCI-H522 > 100 µM | SK-OV-3 > 100 µM | SNB-75 87.3 µM | DMS-114 > 100 µM | OVCAR-8 > 100 µM | KM-20L2 > 100 µM | NCI-H460 > 100 µM | UO-31 > 100 µM | OVCAR-4 > 100 µM | SF-539 > 100 µM | HOP-18 > 100 µM | Malme-3M > 100 µM | HCC 2998 > 100 µM | KM12 > 100 µM | SNB-78 > 100 µM | LXFL 529 > 100 µM | 786-0 > 100 µM | HOP-92 82 µM | U-251 > 100 µM | HT-29 > 100 µM | K562 48.1 µM | XF498 > 100 µM | HCT-116 > 100 µM | SNB-19 > 100 µM | SK-MEL-2 > 100 µM | A549 > 100 µM | RXF 631 16.7 µM | NCI-H226 > 100 µM | TK-10 > 100 µM | UACC-62 > 100 µM | SN12C > 100 µM | CAKI-1 > 100 µM | MOLT-4 > 100 µM | SF-295 > 100 µM | NCI-H23 > 100 µM | UACC-257 > 100 µM | IGROV-1 > 100 µM | DLD-1 89.1 µM
> 100 µM: HCT-15

CC(=O)OC1COC(N2C(=O)/C(=N\Nc3ccc([N+](=O)[O-])cc3)c3cc(Br)c([N+](=O)[O-])cc32)C(OC(C)=O)C1OC(C)=O (stereo not drawn)
33 µM: HCT-15
inactive: M14 55.8 µM | SR 98.9 µM | LOX IMVI 51.1 µM | SK-MEL-28 > 100 µM | SK-MEL-5 24.1 µM | SW-620 46 µM | ACHN 21.6 µM | RXF 393 15.5 µM | OVCAR-3 > 100 µM | RPMI-8226 > 100 µM | OVCAR-5 > 100 µM | EKVX 62.7 µM | NCI-H522 24.1 µM | SK-OV-3 40.6 µM | OVCAR-8 > 100 µM | KM-20L2 32.1 µM | NCI-H460 > 100 µM | HOP-62 38.5 µM | OVCAR-4 32.9 µM | SF-539 68.2 µM | HOP-18 > 100 µM | Malme-3M > 100 µM | SF-268 26.4 µM | DMS-273 35.2 µM | HCC 2998 > 100 µM | KM12 27.9 µM | SNB-78 27.2 µM | LXFL 529 21.8 µM | 786-0 42 µM | HOP-92 8.26 µM | CCRF-CEM 61.5 µM | U-251 36.8 µM | HT-29 74.5 µM | K562 41 µM | XF498 32.8 µM | HCT-116 44.6 µM | SNB-19 > 100 µM | SK-MEL-2 > 100 µM | A549 > 100 µM | RXF 631 22.2 µM | NCI-H226 > 100 µM | TK-10 > 100 µM | COLO 205 > 100 µM | UACC-62 15.3 µM | SN12C > 100 µM | CAKI-1 50.4 µM | MOLT-4 > 100 µM | M19-MEL > 100 µM | SF-295 21.4 µM | NCI-H23 31.6 µM | UACC-257 > 100 µM | IGROV-1 26.2 µM | DLD-1 > 100 µM | HL-60 65.6 µM

COc1ccc(NC(=O)c2cc(OC)c(OC)c(OC)c2)cc1
inactive: M14 88.1 µM | LOX IMVI 60.3 µM | SK-MEL-28 29 µM | SK-MEL-5 28.2 µM | SW-620 39.8 µM | ACHN 83.8 µM | RXF 393 31.3 µM | OVCAR-3 39.1 µM | RPMI-8226 39.5 µM | OVCAR-5 > 100 µM | EKVX > 69.2 µM | NCI-H522 30.2 µM | SK-OV-3 49.8 µM | SNB-75 42.2 µM | DMS-114 25.7 µM | OVCAR-8 74.6 µM | A498 43.6 µM | KM-20L2 32.7 µM | NCI-H460 35.9 µM | HOP-62 33 µM | UO-31 64.1 µM | OVCAR-4 > 100 µM | SF-539 48 µM | HOP-18 > 64.6 µM | Malme-3M 41.6 µM | SF-268 > 56.4 µM | DMS-273 29.1 µM | HCC 2998 42.2 µM | KM12 22.8 µM | SNB-78 42.7 µM | LXFL 529 51.8 µM | 786-0 > 81.8 µM | HOP-92 > 100 µM | CCRF-CEM 37.8 µM | U-251 39.6 µM | HT-29 36.8 µM | K562 24.7 µM | XF498 > 100 µM | HCT-116 36.7 µM | SNB-19 > 100 µM | SK-MEL-2 21.8 µM | A549 62.1 µM | RXF 631 > 56.4 µM | NCI-H226 > 78.3 µM | TK-10 > 100 µM | COLO 205 26.5 µM | UACC-62 31 µM | SN12C 55 µM | CAKI-1 66.4 µM | MOLT-4 34.3 µM | M19-MEL 41.7 µM | SF-295 36.1 µM | NCI-H23 40.7 µM | UACC-257 42.8 µM | IGROV-1 66.1 µM | DLD-1 50.6 µM | HL-60 22.2 µM
33.4 µM: HCT-15
